Structures are written as SMILES. A value given as a limit tells only on which side of the number the result lay.

In general, IC50 refers to the point on the concentration scale where inhibition reaches its midpoint. A lower IC50 goes with greater potency.

For the assay, the system named is mutant Huntington (HTT) protein. In words: HTT Mutant HTRF iPSC assay (mHTT protein lowering). The note with it: human iPSC derived from a HTT patient with a poly-Q49 mutation. The class given is cell-based. For orientation: Time-resolved FRET reads energy transfer from a long-lived donor to a nearby acceptor.
The molecule `COc1cc2nc(C)cn2cc1NC(=O)c1cc2ccc(N3CC[C@]4(CCCN4C)C3)nc2s1` (single isomer, unassigned) [Compound 251] had an IC50 of 100 to 1000 nM.

Take `COc1cc2nc(C)cn2cc1NC(=O)c1cc2ccc(N3CC[C@@]4(CCCN4C)C3)nc2s1` (single isomer, unassigned) [Compound 252]: the 50% inhibitory concentration (IC50) is less than 100 nM.

As for `Cc1cn2cc(NC(=O)c3cc4ccc(N5CC[C@@]6(CCCN6C)C5)nc4s3)nc(C(F)F)c2n1` (single isomer, unassigned) [Compound 254], the 50% inhibitory concentration (IC50) was less than 100 nM.

With `Cc1cn2cc(NC(=O)c3cc4ccc(N5CC[C@]6(CCCN6C)C5)nc4s3)nc(C(F)F)c2n1` (single isomer, unassigned) [Compound 255], the IC50 was less than 100 nM.

Consider `COc1cc2nn(C)cc2cc1NC(=O)c1cc2ncc(N3CCC4(CCN4C)C3)nc2s1` (single isomer, unassigned) [Compound 264], for which the IC50 is less than 100 nM.

`COc1c(NC(=O)c2cc3ccc(C4CCN(C)C4)nc3s2)cc2cn(C)nc2c1F` (single isomer, unassigned) [Compound 265]: the half-maximal inhibitory concentration (IC50) was less than 100 nM.

In turn, `COc1c(NC(=O)c2cc3ccc(C4CCN(C)C4)nc3s2)cc2cn(C)nc2c1F` (single isomer, unassigned) [Compound 266] registered a concentration for half-maximal inhibition (IC50) of less than 100 nM.

With `Cc1cn2cc(NC(=O)c3cc4ccc(N5CCC(N(C)C)C5)nc4s3)ccc2n1` (stereo in doubt) [Compound 25, (R)-6-(3-(dimethylamino)pyrrolidin-1-yl)-N-(2-methylimidazo[1,2-a]pyridin-6-yl)thieno[2,3-b]pyridine-2-carboxamide], the IC50 was 100 to 1000 nM.

`Cc1cn2cc(NC(=O)c3cc4ccc(N5CCC(N(C)C)C5)nc4s3)ccc2n1` (stereo in doubt) [Compound 26, (S)-6-(3-(dimethylamino)pyrrolidin-1-yl)-N-(2-methylimidazo[1,2-a]pyridin-6-yl)thieno[2,3-b]pyridine-2-carboxamide] returned a half-maximal inhibitory concentration (IC50) of 100 to 1000 nM.

`Cc1cn2cc(NC(=O)c3cc4ccc(N5CC[C@H]6CN(C)CC[C@H]65)nc4s3)ccc2n1` (stereo in doubt) [Compound 28, N-(2-methylimidazo[1,2-a]pyridin-6-yl)-6-((3aS,7aR)-5-methyloctahydro-1H-pyrrolo[3,2-c]pyridin-1-yl)thieno[2,3-b]pyridine-2-carboxamide]: the half-inhibitory concentration (IC50) was 1000 to 9000 nM.

Molecule `Cc1cn2cc(NC(=O)c3cc4ccc(N5CCC6CCN(C)C6C5)nc4s3)ccc2n1` (stereo in doubt) [Compound 30, N-(2-methylimidazo[1,2-a]pyridin-6-yl)-6-((3aR,7aR)-1-methyloctahydro-6H-pyrrolo[2,3-c]pyridin-6-yl)thieno[2,3-b]pyridine-2-carboxamide] came in with an IC50 of 100 to 1000 nM.

`Cc1cn2cc(NC(=O)c3cc4ccc(N5C[C@H]6C[C@@H]5CN6C(C)C)nc4s3)ccc2n1` (stereo in doubt) [Compound 34, 6-((1R,4R)-5-isopropyl-2,5-diazabicyclo[2.2.1]heptan-2-yl)-N-(2-methylimidazo[1,2-a]pyridin-6-yl)thieno[2,3-b]pyridine-2-carboxamide] came in with an IC50 of less than 100 nM.

Regarding `Cc1cn2cc(NC(=O)c3cc4ccc(N5CC6CCN(C)C6C5)nc4s3)ccc2n1` (stereo in doubt) [Compound 43, 6-((3aR,6aR)-1-methylhexahydropyrrolo[3,4-b]pyrrol-5(1H)-yl)-N-(2-methylimidazo[1,2-a]pyridin-6-yl)thieno[2,3-b]pyridine-2-carboxamide], the IC50 lay in the range of 100 to 1000 nM.

In turn, `CCN[C@H]1CCN(c2ccc3cc(C(=O)Nc4cc(F)c5nc(C)cn5c4)sc3n2)C1` (stereo in doubt) [Compound 67, 6-[(3S)-3-(ethylamino)pyrrolidin-1-yl]-N-(8-fluoro-2-methyl-imidazo[1,2-a]pyridin-6-yl)thieno[2,3-b]pyridine-2-carboxamide] gave a half-maximal inhibitory concentration (IC50) of less than 100 nM.

With `CCN[C@@H]1CCN(c2ccc3cc(C(=O)Nc4cc(F)c5nc(C)cn5c4)sc3n2)C1` (stereo in doubt) [Compound 68, 6-[(3R)-3-(ethylamino)pyrrolidin-1-yl]-N-(8-fluoro-2-methyl-imidazo[1,2-a]pyridin-6-yl)thieno[2,3-b]pyridine-2-carboxamide], the half-inhibitory concentration (IC50) is less than 100 nM.

Regarding `Cc1cn2cc(NC(=O)c3nc4ccc(N5CC[C@@H](N6CCC6)C5)nc4s3)cc(F)c2n1` (stereo in doubt) [Compound 92, (rel-(R)-5-(3-(azetidin-1-yl)pyrrolidin-1-yl)-N-(8-fluoro-2-methylimidazo[1,2-a]pyridin-6-yl)thiazolo[5,4-b]pyridine-2-carboxamide], the IC50 is less than 100 nM.

In turn, `COc1cc(NC(=O)c2cc3nc(N4C[C@H]5CN(C)C[C@H]54)ccc3o2)cn2cc(C)nc12` (stereo in doubt) [Compound 168, N-(8-methoxy-2-methyl-imidazo[1,2-a]pyridin-6-yl)-5-[(1R,5S)-3-methyl-3,6-diazabicyclo[3.2.0]heptan-6-yl]furo[3,2-b]pyridine-2-carboxamide] returned an IC50 of less than 100 nM.

`Cc1cn2cc(NC(=O)c3cc4ccc(N5CCC(N(C)C)C5)nc4s3)ccc2n1` (stereo not drawn) [Compound 1, 6-[3-(dimethylamino)pyrrolidin-1-yl]-N-(2-methylimidazo[1,2-a]pyridin-6-yl)thieno[2,3-b]pyridine-2-carboxamide] returned a half-inhibitory concentration (IC50) of 1000 to 9000 nM.

Turning to `Cc1cc(NC(=O)c2cc3ccc(N4C[C@@H](C)N[C@@H](C)C4)nc3s2)cc2cn(C)nc12` [Compound 2, N-(2,7-dimethylindazol-5-yl)-6-[(3S,5R)-3,5-dimethylpiperazin-1-yl]thieno[2,3-b]pyridine-2-carboxamide], the IC50 is less than 100 nM.

Take `Cc1cn2cc(NC(=O)c3cc4ccc(N5CCN(C)CC5)nc4s3)nc(C)c2n1` [Compound 3, N-(2,8-dimethylimidazo[1,2-a]pyrazin-6-yl)-6-(4-methylpiperazin-1-yl)thieno[2,3-b]pyridine-2-carboxamide]: the half-inhibitory concentration (IC50) fell in the range of 100 to 1000 nM.

Consider `Cc1cc(NC(=O)c2cc3ccc(N4CCC(N(C)C)C4)nc3s2)cc2cn(C)nc12` (stereo not drawn) [Compound 4, N-(2,7-dimethyl-2H-indazol-5-yl)-6-(3-(dimethylamino)pyrrolidin-1-yl)thieno[2,3-b]pyridine-2-carboxamide], for which the IC50 lay within 100 to 1000 nM.

As to `Cc1cn2cc(NC(=O)c3cc4ccc(N5CCC(N(C)C)C5)nc4s3)nc(C)c2n1` (stereo not drawn) [Compound 5, 6-(3-(dimethylamino)pyrrolidin-1-yl)-N-(2,8-dimethylimidazo[1,2-a]pyrazin-6-yl)thieno[2,3-b]pyridine-2-carboxamide], the 50% inhibitory concentration (IC50) was in the range of 100 to 1000 nM.

As for `Cc1cn2cc(NC(=O)c3cc4ccc(N5CC[C@@H](N(C)C)C5)nc4s3)ncc2n1` [Compound 6, 6-[(3R)-3-(dimethylamino)pyrrolidin-1-yl]-N-(2-methylimidazo[1,2-a]pyrazin-6-yl)thieno[2,3-b]pyridine-2-carboxamide], the IC50 lay within 100 to 1000 nM.

In turn, `Cc1cc(NC(=O)c2cc3nc(N4CCC(N(C)C)C4)ccc3o2)cc2cn(C)nc12` (stereo not drawn) [Compound 7, N-(2,7-dimethyl-2H-indazol-5-yl)-5-(3-(dimethylamino)pyrrolidin-1-yl)furo[3,2-b]pyridine-2-carboxamide] had an IC50 of 1000 to 9000 nM.

Turning to `Cc1cn2cc(NC(=O)c3cc4nc(N5CC[C@H](N(C)C)C5)ccc4o3)cc(F)c2n1` [Compound 8, 5-[(3S)-3-(dimethylamino)pyrrolidin-1-yl]-N-(8-fluoro-2-methyl-imidazo[1,2-a]pyridin-6-yl)furo[3,2-b]pyridine-2-carboxamide], the half-inhibitory concentration (IC50) lay within 1000 to 9000 nM.

In turn, `Cc1cn2cc(NC(=O)c3nc4ccc(N5CCC(N(C)C)C5)nc4s3)ccc2n1` (stereo not drawn) [Compound 9, 5-[3-(dimethylamino)pyrrolidin-1-yl]-N-(2-methylimidazo[1,2-a]pyridin-6-yl)thiazolo[5,4-b]pyridine-2-carboxamide] showed an IC50 of 1000 to 9000 nM.

For `Cc1cn2cc(NC(=O)c3cc4ccc(N5CC[C@@H](N(C)C)C5)nc4s3)cc(F)c2n1` [Compound 10, 6-[(3R)-3-(dimethylamino)pyrrolidin-1-yl]-N-(8-fluoro-2-methyl-imidazo[1,2-a]pyridin-6-yl)thieno[2,3-b]pyridine-2-carboxamide], the 50% inhibitory concentration (IC50) was less than 100 nM.

Turning to `Cc1cn2cc(NC(=O)c3cc4ccc(N5CCC(N(C)C)CC5)nc4s3)ccc2n1` [Compound 11, 6-(4-(dimethylamino)piperidin-1-yl)-N-(2-methylimidazo[1,2-a]pyridin-6-yl)thieno[2,3-b]pyridine-2-carboxamide], the IC50 lay in the range of 100 to 1000 nM.

`Cc1cn2cc(NC(=O)c3cc4ccc(NC5CC6CCCN6C5)nc4s3)ccc2n1` (stereo not drawn) [Compound 12, 6-((hexahydro-1H-pyrrolizin-2-yl)amino)-N-(2-methylimidazo[1,2-a]pyridin-6-yl)thieno[2,3-b]pyridine-2-carboxamide] had an IC50 of 100 to 1000 nM.

Regarding `Cc1cn2cc(NC(=O)c3cc4ccc(NC5CCC6CN(C)CC65)nc4s3)ccc2n1` (stereo not drawn) [Compound 13, N-(2-methylimidazo[1,2-a]pyridin-6-yl)-6-((2-methyloctahydrocyclopenta[c]pyrrol-4-yl)amino)thieno[2,3-b]pyridine-2-carboxamide], the IC50 was 1000 to 9000 nM.

For `Cc1cn2cc(NC(=O)c3cc4ccc(NC5CCN6CCCC6C5)nc4s3)ccc2n1` (stereo not drawn) [Compound 14, N-(2-methylimidazo[1,2-a]pyridin-6-yl)-6-((octahydroindolizin-7-yl)amino)thieno[2,3-b]pyridine-2-carboxamide], the half-maximal inhibitory concentration (IC50) was 100 to 1000 nM.

With `Cc1cn2cc(NC(=O)c3cc4ccc(N5CCC6OCCN(C)C6C5)nc4s3)ccc2n1` (stereo not drawn) [Compound 15, 6-(4-methylhexahydro-2H-pyrido[4,3-b][1,4]oxazin-6(5H)-yl)-N-(2-methylimidazo[1,2-a]pyridin-6-yl)thieno[2,3-b]pyridine-2-carboxamide], the IC50 fell in the range of 100 to 1000 nM.

`Cc1cn2cc(NC(=O)c3cc4ccc(N5CCC6CCN(C)CC65)nc4s3)ccc2n1` (stereo not drawn) [Compound 16, N-(2-methylimidazo[1,2-a]pyridin-6-yl)-6-(6-methyloctahydro-1H-pyrrolo[2,3-c]pyridin-1-yl)thieno[2,3-b]pyridine-2-carboxamide] had an IC50 of 1000 to 9000 nM.
